What is called IC50 is the concentration that inhibits the measured activity by half. Low readings indicate greater potency in that assay, high ones weaker potency in that assay.

Where only a bound is given, the exact number is not on record here.

PIK3CG (human), sequence (P48736 whole entry, looked up): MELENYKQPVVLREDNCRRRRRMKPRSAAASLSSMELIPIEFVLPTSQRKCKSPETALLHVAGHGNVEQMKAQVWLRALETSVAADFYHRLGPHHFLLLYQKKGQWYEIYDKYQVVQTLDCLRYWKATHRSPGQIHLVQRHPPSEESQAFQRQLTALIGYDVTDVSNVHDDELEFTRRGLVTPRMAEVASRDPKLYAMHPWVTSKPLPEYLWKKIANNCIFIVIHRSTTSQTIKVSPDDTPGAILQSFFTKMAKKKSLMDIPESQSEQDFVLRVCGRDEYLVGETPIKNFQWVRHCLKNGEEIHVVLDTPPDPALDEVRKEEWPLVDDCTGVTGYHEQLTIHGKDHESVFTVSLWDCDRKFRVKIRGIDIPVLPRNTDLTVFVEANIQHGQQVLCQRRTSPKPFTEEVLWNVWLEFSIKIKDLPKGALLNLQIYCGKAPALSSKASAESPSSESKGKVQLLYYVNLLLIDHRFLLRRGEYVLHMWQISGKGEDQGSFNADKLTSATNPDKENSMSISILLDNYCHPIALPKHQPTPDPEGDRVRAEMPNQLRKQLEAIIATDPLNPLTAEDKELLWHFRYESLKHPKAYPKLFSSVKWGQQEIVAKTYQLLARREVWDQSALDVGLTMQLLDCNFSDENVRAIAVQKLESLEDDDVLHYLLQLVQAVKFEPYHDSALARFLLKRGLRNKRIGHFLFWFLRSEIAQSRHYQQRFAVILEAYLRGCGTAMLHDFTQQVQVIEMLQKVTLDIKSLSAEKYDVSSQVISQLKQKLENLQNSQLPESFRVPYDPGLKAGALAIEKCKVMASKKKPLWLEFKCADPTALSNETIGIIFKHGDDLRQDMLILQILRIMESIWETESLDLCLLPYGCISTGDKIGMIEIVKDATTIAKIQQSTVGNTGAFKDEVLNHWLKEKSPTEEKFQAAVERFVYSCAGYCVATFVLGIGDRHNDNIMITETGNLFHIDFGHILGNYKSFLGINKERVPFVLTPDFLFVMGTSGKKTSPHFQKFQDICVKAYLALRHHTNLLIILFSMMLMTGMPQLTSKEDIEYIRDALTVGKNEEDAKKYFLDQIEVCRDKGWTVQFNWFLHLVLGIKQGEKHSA

This assay has as its target PIK3CG (human) (UniProt P48736). The assay can be described thus: Assessment of PIK3CG Kinase Activity.
On to `CCN1CCC[C@H]1CNC(=O)Nc1nc2c(s1)-c1nc(-c3ccccc3Cl)ncc1CC2`, for which the IC50 was below 800 nM.
As for `Cn1cc(CNC(=O)Nc2nc3c(s2)-c2nc(-c4cccc(F)c4Cl)ncc2CC3)cn1`, the concentration for half-maximal inhibition (IC50) is below 800 nM.
Take `CCc1nnc(CCNC(=O)Nc2nc3c(s2)-c2nc(-c4ccccc4F)ncc2CC3)o1`: the half-inhibitory concentration (IC50) was below 800 nM.
In turn, `CCN(CC)CCNC(=O)Nc1nc2c(s1)-c1nc(-c3ccccc3Cl)ncc1CC2` gave an IC50 below 800 nM.
`CC(C)CCNC(=O)CCNC(=O)Nc1nc2c(s1)-c1nc(-c3ccccc3Cl)ncc1CC2`: the IC50 is below 800 nM.
`CC(C)(C)CC(=O)N[C@@H]1CCN(C(=O)Nc2nc3c(s2)-c2nc(-c4ccccc4Cl)ncc2CC3)C1`: the IC50 was below 800 nM.
In the case of `N#Cc1cccc(CNC(=O)Nc2nc3c(s2)-c2nc(-c4ccccc4Cl)ncc2CC3)c1`, the IC50 was below 800 nM.
The compound `CCNC(=O)Nc1nc2c(s1)-c1nc(-c3cccc(F)c3Cl)ncc1CC2` yielded an IC50 below 800 nM.
`O=C(Nc1nc2c(s1)-c1nc(-c3ccccc3Cl)ncc1CC2)N1CC[C@@H](NC(=O)N2CCCCC2)C1` returned a 50% inhibitory concentration (IC50) below 800 nM.
In the case of `O=C(Nc1nc2c(s1)-c1nc(-c3ccccc3Cl)ncc1CC2)N1CCCC(C(O)c2ccccc2)C1` (configuration not stated), the IC50 is below 800 nM.
`CC(=O)NCC1CCCN(C(=O)Nc2nc3c(s2)-c2nc(-c4ccccc4Cl)ncc2CC3)C1` (configuration not stated) gave a half-maximal inhibitory concentration (IC50) below 800 nM.
The compound `CC(C)(C)OC(=O)CCNC(=O)Nc1nc2c(s1)-c1nc(C(C)(C)C)ncc1CC2` returned a 50% inhibitory concentration (IC50) below 800 nM.
With `O=C(NCCN1CCOCC1)Nc1nc2c(s1)-c1nc(-c3ccccc3Cl)ncc1CC2`, the IC50 was below 800 nM.
The same measure for `CN1CCN(Cc2cccc(NC(=O)Nc3nc4c(s3)-c3nc(-c5ccccc5Cl)ncc3CC4)c2)CC1`: below 800 nM.
`CC(C)CCNC(=O)Nc1nc2c(s1)-c1nc(-c3ccccc3Cl)ncc1CC2` displayed an IC50 below 800 nM.
`O=C(NCc1cc(C2CC2)n[nH]1)Nc1nc2c(s1)-c1nc(-c3cccc(F)c3Cl)ncc1CC2`: the IC50 is below 800 nM.
`CC(C)CNC(=O)CCNC(=O)Nc1nc2c(s1)-c1nc(-c3ccccc3Cl)ncc1CC2` registered a half-inhibitory concentration (IC50) below 800 nM.
As to `O=C(NCc1cccc(OC(F)(F)F)c1)Nc1nc2c(s1)-c1nc(-c3ccccc3Cl)ncc1CC2`, the IC50 is below 800 nM.
Regarding `CC(=O)N[C@@H]1CCN(C(=O)Nc2nc3c(s2)-c2nc(-c4ccccc4Cl)ncc2CC3)C1`, the IC50 is below 800 nM.
The same measure for `CCc1cnc(CCNC(=O)Nc2nc3c(s2)-c2nc(C(C)(C)C)ncc2CC3)o1`: below 800 nM.
On to `CC(C)(C)OC(=O)N[C@H]1CCN(C(=O)Nc2nc3c(s2)-c2nc(-c4ccccc4Cl)ncc2CC3)C1`, for which the IC50 is below 800 nM.
Turning to `O=C(NCC1CCCCC1)Nc1nc2c(s1)-c1nc(-c3ccccc3Cl)ncc1CC2`, the half-inhibitory concentration (IC50) was below 800 nM.
In turn, `CCc1csc(CCNC(=O)Nc2nc3c(s2)-c2nc(-c4ccccc4F)ncc2CC3)n1` gave an IC50 below 800 nM.
The compound `CC(=O)N[C@H]1CCN(C(=O)Nc2nc3c(s2)-c2nc(-c4ccccc4Cl)ncc2CC3)C1` returned an IC50 below 800 nM.
Next, `CC(C)(C)CC(=O)N[C@H]1CCN(C(=O)Nc2nc3c(s2)-c2nc(-c4ccccc4Cl)ncc2CC3)C1`: below 800 nM; `O=C(Nc1nc2c(s1)-c1nc(-c3ccccc3Cl)ncc1CC2)N1CCC(CN2CCc3ccccc3C2=O)C1` (configuration not stated): below 800 nM; `CN(C)C(=O)CNC(=O)Nc1nc2c(s1)-c1nc(-c3ccccc3Cl)ncc1CC2`: below 800 nM.
`O=C(N[C@H]1CCN(C(=O)Nc2nc3c(s2)-c2nc(-c4ccccc4Cl)ncc2CC3)C1)C(F)F` gave a concentration for half-maximal inhibition (IC50) below 800 nM.
For `CN(C)Cc1cccc(CNC(=O)Nc2nc3c(s2)-c2nc(-c4ccccc4Cl)ncc2CC3)c1`, the IC50 was below 800 nM.
In turn, `CC(C)OCCNC(=O)Nc1nc2c(s1)-c1nc(-c3ccccc3Cl)ncc1CC2` gave a half-maximal inhibitory concentration (IC50) below 800 nM.
As for `O=C(O)CC1(CNC(=O)Nc2nc3c(s2)-c2nc(-c4ccccc4Cl)ncc2CC3)CCCCC1`, the 50% inhibitory concentration (IC50) was below 800 nM.
Regarding `CN(C)C(=O)N[C@H]1CCN(C(=O)Nc2nc3c(s2)-c2nc(-c4ccccc4Cl)ncc2CC3)C1`, the IC50 is below 800 nM.
Compound `CCn1cc(CNC(=O)Nc2nc3c(s2)-c2nc(-c4ccccc4Br)ncc2CC3)cn1` came in with an IC50 below 800 nM.
In turn, `CCNC(=O)Nc1nc2c(s1)-c1nc(-c3ccccc3Cl)ncc1CC2` displayed a half-inhibitory concentration (IC50) below 800 nM.
The compound `CN(C(=O)OC(C)(C)C)C1CCN(C(=O)Nc2nc3c(s2)-c2nc(-c4ccccc4Cl)ncc2CC3)C1` (configuration not stated) came in with an IC50 below 800 nM.
Compound `CN(C)C(=O)N[C@@H]1CCN(C(=O)Nc2nc3c(s2)-c2nc(-c4ccccc4Cl)ncc2CC3)C1` had an IC50 below 800 nM.
In the case of `CC(C)NC(=O)CCNC(=O)Nc1nc2c(s1)-c1nc(-c3ccccc3Cl)ncc1CC2`, the IC50 was below 800 nM.
With `CC(C)CC(=O)N[C@@H]1CCN(C(=O)Nc2nc3c(s2)-c2nc(-c4ccccc4Cl)ncc2CC3)C1`, the IC50 was below 800 nM.
`CC(C)c1cnc(CCNC(=O)Nc2nc3c(s2)-c2nc(-c4ccccc4Cl)ncc2CC3)o1` came in with an IC50 below 800 nM.
In the case of `CN(C)C(=O)Nc1nc2c(s1)-c1nc(-c3ccccc3Br)ncc1CC2`, the concentration for half-maximal inhibition (IC50) is below 800 nM.
As for `O=C(NCCc1ccccc1)Nc1nc2c(s1)-c1nc(-c3ccccc3Cl)ncc1CC2`, the IC50 was below 800 nM.
For the compound `NC(=O)N1Cc2ccc(CNC(=O)Nc3nc4c(s3)-c3nc(-c5ccccc5Cl)ncc3CC4)cc2C1`, the IC50 is below 800 nM.
The same measure for `COc1cccc(CNC(=O)Nc2nc3c(s2)-c2nc(-c4ccccc4Cl)ncc2CC3)c1`: below 800 nM; for `CCc1cnc(CCNC(=O)Nc2nc3c(s2)-c2nc(-c4ccccc4Cl)ncc2CC3)o1`: below 800 nM; for `CN(C)S(=O)(=O)N[C@@H]1CCN(C(=O)Nc2nc3c(s2)-c2nc(-c4ccccc4Cl)ncc2CC3)C1`: below 800 nM.
For the compound `CC(C)(C)OC(=O)CCNC(=O)Nc1nc2c(s1)-c1nc(-c3ccccc3Cl)ncc1CC2`, the IC50 was below 800 nM.
`O=C(NCCN1CCNC1=O)Nc1nc2c(s1)-c1nc(-c3ccccc3Cl)ncc1CC2` yielded an IC50 below 800 nM.
The same measure for `CC1(C)NC(=O)N(Cc2ccc(CNC(=O)Nc3nc4c(s3)-c3nc(-c5ccccc5Cl)ncc3CC4)cc2)C1=O`: below 800 nM.
Next, `CN(C)c1cccc(CNC(=O)Nc2nc3c(s2)-c2nc(-c4ccccc4Cl)ncc2CC3)c1`: below 800 nM; `CCN1CCC2(CCN(C(=O)Nc3nc4c(s3)-c3nc(-c5ccccc5Cl)ncc3CC4)C2)C1` (configuration not stated): below 800 nM; `CCNC(=O)CCNC(=O)Nc1nc2c(s1)-c1nc(-c3ccccc3Cl)ncc1CC2`: below 800 nM.
`O=C(NCc1ccco1)Nc1nc2c(s1)-c1nc(-c3ccccc3Cl)ncc1CC2` gave an IC50 below 800 nM.
`CN1CCC(O)C2(CCCN(C(=O)Nc3nc4c(s3)-c3nc(-c5ccccc5Cl)ncc3CC4)C2)C1` (configuration not stated) had an IC50 below 800 nM.
Next, `NC(=O)Nc1nc2c(s1)-c1nc(-c3cccc(F)c3Cl)ncc1CC2`: below 800 nM; `COCCNC(=O)Nc1nc2c(s1)-c1nc(-c3ccccc3Cl)ncc1CC2`: below 800 nM.
The same measure for `O=C(Nc1nc2c(s1)-c1nc(-c3ccccc3Cl)ncc1CC2)N1CC[C@@H](NC(=O)N2CCCC2)C1`: below 800 nM; for `CC1CC(c2ccc(O)cc2)CN1C(=O)Nc1nc2c(s1)-c1nc(-c3ccccc3Cl)ncc1CC2` (configuration not stated): below 800 nM.
`CN(C)S(=O)(=O)N[C@H]1CCN(C(=O)Nc2nc3c(s2)-c2nc(-c4ccccc4Cl)ncc2CC3)C1` returned a 50% inhibitory concentration (IC50) below 800 nM.
For the compound `COCCCNC(=O)Nc1nc2c(s1)-c1nc(-c3ccccc3Cl)ncc1CC2`, the IC50 is below 800 nM.
On to `O=C(NCCC(=O)N1CCCCC1)Nc1nc2c(s1)-c1nc(-c3ccccc3Cl)ncc1CC2`, for which the IC50 is below 800 nM.
In the case of `COc1ccc(CCNC(=O)Nc2nc3c(s2)-c2nc(-c4ccccc4Cl)ncc2CC3)cc1OC`, the IC50 is below 800 nM.
For the compound `CCc1nnc(CCNC(=O)Nc2nc3c(s2)-c2nc(-c4ccccc4Cl)ncc2CC3)o1`, the concentration for half-maximal inhibition (IC50) is below 800 nM.
Next, `CN(C)C(=O)Nc1nc2c(s1)-c1nc(-c3ccccc3Cl)ncc1CC2`: below 800 nM.
The compound `CN1CCC(CNC(=O)Nc2nc3c(s2)-c2nc(-c4ccccc4Cl)ncc2CC3)CC1` gave an IC50 below 800 nM.
In the case of `Nc1cccc(CNC(=O)Nc2nc3c(s2)-c2nc(-c4ccccc4Cl)ncc2CC3)c1`, the 50% inhibitory concentration (IC50) was below 800 nM.
The same measure for `O=C(NCCCN1CCNC1=O)Nc1nc2c(s1)-c1nc(-c3ccccc3Cl)ncc1CC2`: below 800 nM.
`CS(=O)(=O)N[C@@H]1CCN(C(=O)Nc2nc3c(s2)-c2nc(-c4ccccc4Cl)ncc2CC3)C1` yielded an IC50 below 800 nM.
The same measure for `CCc1cnc(CCNC(=O)Nc2nc3c(s2)-c2nc(-c4ccccc4F)ncc2CC3)o1`: below 800 nM; for `O=C(NCc1cccc(C(=O)N2CCOCC2)c1)Nc1nc2c(s1)-c1nc(-c3ccccc3Cl)ncc1CC2`: below 800 nM.
Next, `CC(C)CN(C)C(=O)CCNC(=O)Nc1nc2c(s1)-c1nc(-c3ccccc3Cl)ncc1CC2`: below 800 nM; `N#Cc1ccc(CNC(=O)Nc2nc3c(s2)-c2nc(-c4ccccc4Cl)ncc2CC3)s1`: below 800 nM; `O=C(O)[C@H]1[C@H](c2ccccc2)CCN1C(=O)Nc1nc2c(s1)-c1nc(-c3ccccc3Cl)ncc1CC2`: below 800 nM.
Compound `O=C(NCc1cccc(NC(=O)C2CCCC2)c1)Nc1nc2c(s1)-c1nc(-c3ccccc3Cl)ncc1CC2` came in with an IC50 below 800 nM.
`CNC(=O)Nc1nc2c(s1)-c1nc(C(C)(C)C)ncc1CC2` gave a half-maximal inhibitory concentration (IC50) below 800 nM.
`COCCN(C)C(=O)N[C@H]1CCN(C(=O)Nc2nc3c(s2)-c2nc(-c4ccccc4Cl)ncc2CC3)C1` gave a 50% inhibitory concentration (IC50) below 800 nM.
Regarding `O=C(NCc1nnn[nH]1)Nc1nc2c(s1)-c1nc(-c3ccccc3Cl)ncc1CC2`, the IC50 is below 800 nM.
Next, `CC(=O)NC1CCN(C(=O)Nc2nc3c(s2)-c2nc(-c4ccccc4Cl)ncc2CC3)C1` (configuration not stated): below 800 nM; `CN(C)C(=O)Nc1nc2c(s1)-c1nc(-c3ccccc3F)ncc1CC2`: below 800 nM.
As to `O=C(Nc1nc2c(s1)-c1nc(-c3ccccc3Cl)ncc1CC2)N1CC[C@H](NC(=O)N2CCCC2)C1`, the half-maximal inhibitory concentration (IC50) is below 800 nM.
Regarding `Cn1cc(CNC(=O)Nc2nc3c(s2)-c2nc(-c4ccccc4Br)ncc2CC3)cn1`, the half-maximal inhibitory concentration (IC50) is below 800 nM.
The compound `COc1cccc([C@H](C)NC(=O)Nc2nc3c(s2)-c2nc(-c4ccccc4Cl)ncc2CC3)c1` registered an IC50 below 800 nM.
The same measure for `CC(C)NC(=O)Nc1cccc(CNC(=O)Nc2nc3c(s2)-c2nc(-c4ccccc4Cl)ncc2CC3)c1`: below 800 nM.

For the origin of these results see the Kinase Knowledgebase extract (Sharma et al. 2016).
